Results reported in the supplement of paper PMC8671470.

Experiments:
Conditions in all cases: 72 h
BV-173 = system: BV-173
Outline: (§1)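 Dose–response data were fitted with a four-parameter log-logistic model. They came from fifteen myeloid leukaemia lines treated in duplicate with five tenfold doses from 1 to 10,000 nM for 72 h at 37 °C with 5% CO2, with ATP viability normalised to vehicle and to a positive control at 10 µM. The IC50 was derived from these fits.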

HEL = system: HEL
Outline: as §1

HL-60 = system: HL-60
Outline: as §1

K-562 = system: K-562
Outline: as §1

KCL-22 = system: KCL-22
Outline: as §1

KG-1 = system: KG-1
Outline: as §1

KU-812 = system: KU-812
Outline: as §1

LAMA-84 = system: LAMA-84
Outline: as §1

ML-2 = system: ML-2
Outline: as §1

MOLM-13 = system: MOLM-13
Outline: as §1

MV4-11 = system: MV4-11
Outline: as §1

Mono-Mac-6 = system: Mono-Mac-6
Outline: as §1

NOMO-1 = system: NOMO-1
Outline: as §1

SHI-1 = system: SHI-1
Outline: as §1

THP-1 [1] = system: THP-1
Outline: as §1

THP-1 [2] = experiment: cell viability (% survival relative to DMSO control, bortezomib = 0%); higher = less cytotoxic
Outline: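 Fifteen myeloid leukaemia cell lines (10 AML, 5 CML) were seeded at a density titrated to the linear growth range. They went into 384-well plates with compounds pre-printed at 1, 10, 100, 1000 or 10000 nM in duplicate. After 72 h at 37 °C with 5% CO2, viability was read by CellTiter-Glo luminescence. Values are percent survival, with vehicle set to 100% and a 10 µM positive control to 0%, averaged over the duplicates.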

Compound | IC50 (cell viability) (BV-173) [µM] | IC50 (cell viability) (HEL) [µM] | IC50 (cell viability) (HL-60) [µM] | IC50 (cell viability) (K-562) [µM] | IC50 (cell viability) (KCL-22) [µM] | IC50 (cell viability) (KG-1) [µM] | IC50 (cell viability) (KU-812) [µM] | IC50 (cell viability) (LAMA-84) [µM] | IC50 (cell viability) (ML-2) [µM] | IC50 (cell viability) (MOLM-13) [µM] | IC50 (cell viability) (MV4-11) [µM] | IC50 (cell viability) (Mono-Mac-6) [µM] | IC50 (cell viability) (NOMO-1) [µM] | IC50 (cell viability) (SHI-1) [µM] | IC50 (cell viability) (THP-1 [1]) [µM] | cell viability (THP-1 [2]; 1 nM) [%] | cell viability (THP-1 [2]; 10 nM) [%] | cell viability (THP-1 [2]; 100 nM) [%] | cell viability (THP-1 [2]; 1000 nM) [%] | cell viability (THP-1 [2]; 10000 nM) [%]
Cl.OC[C@H]1NC[C@@H](O)[C@@H](O)[C@@H]1O [1-Deoxymannojirimycin hydrochloride] | > 10 | > 10 | > 10 | > 10 | > 10 | > 10 | > 10 | > 10 | > 10 | > 10 | > 10 | > 10 | > 10 | > 10 | > 10 | 107 | 91 | 98 | 102 | 91.9
CCOC(=O)[C@@]1(CCCCCCOc2ccc(Cl)cc2)CO1 [Etomoxir] | 6.76 | > 10 | > 10 | > 10 | > 10 | > 10 | > 10 | 5.83 | > 10 | > 10 | > 10 | > 10 | > 10 | > 10 | > 10 | 98.3 | 105 | 97.3 | 96.4 | 102
O=C(O)c1cc2sccc2[nH]1 [4H-thieno[3,2-b]pyrrole-5-carboxylic acid] | > 10 | > 10 | > 10 | > 10 | > 10 | > 10 | > 10 | > 10 | > 10 | > 10 | > 10 | > 10 | > 10 | > 10 | > 10 | 105 | 102 | 106 | 97.7 | 105
CCCc1nn(C)c2c(O)nc(-c3cc(S(=O)(=O)N4CCN(C)CC4)ccc3OCC)nc12 [Sildenafil] | > 10 | > 10 | > 10 | > 10 | > 10 | > 10 | > 10 | > 10 | > 10 | > 10 | > 10 | > 10 | > 10 | > 10 | > 10 | 90.3 | 99.4 | 97.1 | 99.8 | 101
CN(C)c1nc(O)c2[nH]cnc2n1 [2-Dimethylamino-6-hydroxypurine] | > 10 | > 10 | > 10 | > 10 | > 10 | > 10 | > 10 | > 10 | > 10 | > 10 | > 10 | > 10 | > 10 | > 10 | > 10 | 95.1 | 94.5 | 86.6 | 97.3 | 97.3
CC(C)C[C@H](NC(=O)[C@@H](O)[C@H](N)Cc1ccccc1)C(=O)O [Ubenimex] | > 10 | > 10 | > 10 | > 10 | > 10 | > 10 | > 10 | > 10 | > 10 | > 10 | > 10 | > 10 | > 10 | > 10 | > 10 | 89.2 | 97.9 | 93.1 | 84.8 | 94.8
O=C1Oc2ccccc2C(=O)C1CC1C(=O)Oc2ccccc2C1=O (stereo not given) [Dicumarol] | > 10 | > 10 | > 10 | > 10 | > 10 | > 10 | > 10 | > 10 | > 10 | > 10 | > 10 | > 10 | > 10 | > 10 | > 10 | 100 | 102 | 96.3 | 103 | 94.2
O=C(c1ccc(OCCN2CCCCC2)cc1)c1c(-c2ccc(O)cc2)sc2cc(O)ccc12 [Raloxifene] | > 10 | > 10 | > 10 | > 10 | > 10 | > 10 | > 10 | > 10 | > 10 | > 10 | > 10 | > 10 | > 10 | > 10 | > 10 | 94.5 | 97 | 96.5 | 105 | 93.5
Cc1coc2c1C(=O)C(=O)c1c-2ccc2c(C)cccc12 [Tanshinone I] | > 10 | > 10 | > 10 | > 10 | > 10 | > 10 | > 10 | > 10 | > 10 | > 10 | > 10 | > 10 | > 10 | > 10 | > 10 | 109 | 102 | 98.9 | 103 | 90.1
c1ccc2c(c1)OCC(=C1NCCN1)O2 [Idazoxan] | > 10 | > 10 | > 10 | > 10 | > 10 | > 10 | > 10 | > 10 | > 10 | > 10 | > 10 | > 10 | > 10 | > 10 | > 10 | 104 | 107 | 83.3 | 91.4 | 103
CC(/C=C1\SC(=S)N(CC(=O)O)C1=O)=C\c1ccccc1 [Epalrestat] | > 10 | > 10 | > 10 | > 10 | > 10 | > 10 | > 10 | > 10 | > 10 | > 10 | > 10 | > 10 | > 10 | > 10 | > 10 | 101 | 95.6 | 115 | 102 | 103
C1CCc2nnc(C34CC5CC(CC(C5)C3)C4)n2CC1 [MERCK-544] | > 10 | > 10 | > 10 | > 10 | > 10 | > 10 | > 10 | > 10 | > 10 | > 10 | > 10 | > 10 | > 10 | > 10 | > 10 | 102 | 107 | 93.7 | 102 | 91.1
N[C@](CCCCB(O)O)(CCN1CCCCC1)C(=O)O [Arginase inhibitor 1] | > 10 | > 10 | > 10 | > 10 | > 10 | > 10 | > 10 | > 10 | > 10 | > 10 | > 10 | > 10 | > 10 | > 10 | > 10 | 105 | 88.6 | 101 | 99 | 102
Clc1ccc2c(c1Cl)CNCC2 | > 10 | > 10 | > 10 | > 10 | > 10 | > 10 | > 10 | > 10 | > 10 | > 10 | > 10 | > 10 | > 10 | > 10 | > 10 | 98.8 | 99.4 | 99.7 | 105 | 90.5
CC(C(=O)O)C(=O)O [Methylmalonate] | > 10 | > 10 | > 10 | > 10 | > 10 | > 10 | > 10 | > 10 | > 10 | > 10 | > 10 | > 10 | > 10 | > 10 | > 10 | 98.5 | 94.5 | 101 | 103 | 87.6
CCOC(=O)N1c2ccc(C(F)(F)F)cc2[C@@H](N(Cc2cc(C(F)(F)F)cc(C(F)(F)F)c2)C(=O)OC)C[C@H]1CC [Torcetrapib] | 0.652 | > 10 | > 10 | > 10 | > 10 | 9.96 | > 10 | > 10 | 7.83 | > 10 | 7.03 | > 10 | > 10 | > 10 | > 10 | 103 | 97.6 | 99.4 | 101 | 92.2
O=C(O)CCc1ccc(NCc2cccc(Oc3ccccc3)c2)cc1 [GW9508] | > 10 | > 10 | > 10 | > 10 | > 10 | > 10 | > 10 | > 10 | > 10 | > 10 | > 10 | > 10 | > 10 | > 10 | > 10 | 95.1 | 101 | 104 | 111 | 111
CC(Cc1ccc(O)c(O)c1)C(C)Cc1ccc(O)c(O)c1 (stereo not given) [Masoprocol] | 3.66 | > 10 | 3.15 | > 10 | > 10 | 6.63 | > 10 | > 10 | 3.42 | > 10 | 3.8 | 2.08 | > 10 | > 10 | > 10 | 95.4 | 98.4 | 96.2 | 93.4 | 85.9
Nc1ccn([C@@H]2O[C@H](CO)[C@@H](O)[C@@H]2O)c(=O)n1 [Cytarabine] | 0.00472 | 0.0478 | 0.43 | 0.092 | 0.0389 | 0.116 | 0.034 | 0.0585 | 0.0681 | 0.0806 | 0.566 | 0.364 | 2.29 | 0.135 | 4.77 | 103 | 104 | 89.9 | 91.7 | 23.8
O=C(COc1ccc(C(=O)c2ccccc2)cc1)NC1CCN(Cc2ccccc2)CC1 [AdipoRon] | 7.82 | > 10 | > 10 | > 10 | > 10 | 9.73 | 8.38 | > 10 | > 10 | > 10 | > 10 | > 10 | > 10 | > 10 | > 10 | 96.2 | 98.8 | 102 | 91.6 | 104
O=C(O)C(S)=Cc1c[nH]c2ccc(F)cc12 | > 10 | > 10 | > 10 | > 10 | > 10 | > 10 | > 10 | > 10 | > 10 | > 10 | > 10 | > 10 | > 10 | > 10 | > 10 | 99.1 | 97.6 | 98 | 113 | 101
